Patent publication US7547690B2, “Compounds for the treatment of Hepatitis C” (Bristol-Myers Squibb Company, priority 2007, dated 2009)

Key:
HCV NS5B = biological target: T1, HCV NS5B (Hepatitis C virus genotype 1b, UniProt Q9WMX2); test: HCV NS5B RdRp enzyme assay (standard / modified); assay type: biochemical; settings: HCV RdRp genotype 1b; standard or modified assay not specified; read-out: IC50
T1 construct: The protein was expressed with an 18 amino acid C-terminal truncation to enhance the solubility; made in house; host or cells: E. coli BL21(DE3)
T1 sequence (Q9WMX2 2420-2992): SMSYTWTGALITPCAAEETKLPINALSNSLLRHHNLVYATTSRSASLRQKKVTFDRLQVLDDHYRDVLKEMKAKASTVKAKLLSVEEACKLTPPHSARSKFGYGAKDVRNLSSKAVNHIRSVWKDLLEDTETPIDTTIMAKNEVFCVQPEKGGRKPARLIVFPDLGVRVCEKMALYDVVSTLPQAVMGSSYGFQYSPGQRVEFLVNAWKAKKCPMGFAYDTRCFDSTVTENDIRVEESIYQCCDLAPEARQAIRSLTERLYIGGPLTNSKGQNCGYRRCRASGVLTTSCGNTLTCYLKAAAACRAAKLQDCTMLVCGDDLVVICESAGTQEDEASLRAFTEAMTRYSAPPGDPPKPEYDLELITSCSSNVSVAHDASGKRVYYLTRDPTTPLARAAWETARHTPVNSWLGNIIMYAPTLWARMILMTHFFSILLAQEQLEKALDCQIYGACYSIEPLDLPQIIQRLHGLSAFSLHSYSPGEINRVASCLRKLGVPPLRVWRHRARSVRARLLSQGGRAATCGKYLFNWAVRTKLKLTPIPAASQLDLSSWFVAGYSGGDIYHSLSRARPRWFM
Method in brief: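 Genotype 1b NS5B, 18-aa C-terminal truncation, E. coli-expressed; polyA template with biotin-oligo-dT12 primer, 3H-UTP (0.29 μM UTP), pH 7.5 Hepes, 2% DMSO, 30 °C, SPA read. Standard: 28 nM enzyme, 6 nM template, 180 nM primer, 60 min. Modified: 1.75 nM enzyme, 0.36 nM template, 20 nM bead-precaptured primer, 4 h; IC50 from seven concentrations, four-parameter fit.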

HCV replicon cells = test: HCV replicon FRET / luciferase assay; assay type: cell-based; settings: Hepatitis C virus, 50% reduction in FRET or luciferase activity in HCV replicon cells; read-out: EC50
Method in brief: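 HCV replicon cells (with or without Renilla luciferase reporter) incubated with titrated compounds at 37° C; cytotoxicity read by Alamar blue. Replicon activity then read by NS3 cleavage of EDANS/DABCYL FRET peptide (20 μM final, 340/490 nm kinetic) or by luciferase; background from highest control-inhibitor wells subtracted; EC50 = concentration giving 50% signal reduction.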

**Q.** For `CCN1C[C@H]2C[C@@H]1CN2C(=O)C12CC1c1cc(OC)ccc1-c1c(C3CCCCC3)c3ccc(C(=O)NS(C)(=O)=O)cc3n1C2` (stereo partly drawn), which IC50 (HCV NS5B) is on record?
**A.** 2.4 to 500 nM

**Q.** What about the EC50 (HCV replicon cells) of the same compound?
**A.** 2.4 to 500 nM

**Q.** Which results are given for `COc1ccc2c(c1)C1CC1(C(=O)N1CC3CC(C1)c1cccc(=O)n1C3)Cn1c-2c(C2CCCCC2)c2ccc(C(=O)NS(=O)(=O)N(C)C)cc21` (stereo not drawn)?
**A.** IC50 (HCV NS5B): 2.4 to 500 nM; EC50 (HCV replicon cells): 2.4 to 500 nM

**Q.** Which results are given for `COc1ccc2c(c1)C1CC1(C(=O)N1C3COC[C@@H]1CN(C)C3)Cn1c-2c(C2CCCCC2)c2ccc(C(=O)NS(=O)(=O)CC(C)C)cc21` (stereo partly drawn)?
**A.** IC50 (HCV NS5B): 2.4 to 500 nM; EC50 (HCV replicon cells): 2.4 to 500 nM

**Q.** Which IC50 (HCV NS5B) does the source give for `COc1ccc2c(c1)C1CC1(C(=O)N1C[C@H]3C[C@@H]1CN3C)Cn1c-2c(C2CCCCC2)c2ccc(C(=O)NS(N)(=O)=O)cc21` (stereo partly drawn) here?
**A.** 2.4 to 500 nM

**Q.** And the EC50 (HCV replicon cells)?
**A.** 2.4 to 500 nM

**Q.** What does the source list for `CCN1CC2CC(C1)N2C(=O)[C@]12C[C@H]1c1cc(OC)ccc1-c1c(C3CCCCC3)c3ccc(C(=O)NS(=O)(=O)N(C)C)cc3n1C2`?
**A.** IC50 (HCV NS5B): 2.4 to 500 nM; EC50 (HCV replicon cells): 2.4 to 500 nM

**Q.** How did the IC50 (HCV NS5B) turn out when `COc1ccc2c(c1)[C@@H]1C[C@]1(C(=O)N1C3CCC1CN(C)CC3)Cn1c-2c(C2CCCCC2)c2ccc(C(=O)NS(=O)(=O)C(C)C)cc21` (stereo partly drawn) was run?
**A.** 2.4 to 500 nM

**Q.** And the EC50 (HCV replicon cells)?
**A.** 2.4 to 500 nM

**Q.** What does the source list for `COc1ccc2c(c1)C1CC1(C(=O)N1CC3CCC1CN3)Cn1c-2c(C2CCCCC2)c2ccc(C(=O)NS(=O)(=O)C3CCCC3)cc21` (stereo not drawn)?
**A.** IC50 (HCV NS5B): 2.4 to 500 nM; EC50 (HCV replicon cells): > 1000 nM

**Q.** `CCC(C)S(=O)(=O)NC(=O)c1ccc2c(C3CCCCC3)c3n(c2c1)CC1(C(=O)N2C4COCC2COC4)CC1c1cc(OC)ccc1-3` (stereo not drawn) was tested. Which IC50 (HCV NS5B) did it give?
**A.** 2.4 to 500 nM

**Q.** And the EC50 (HCV replicon cells)?
**A.** 2.4 to 500 nM

**Q.** Which IC50 (HCV NS5B) does the source give for `CCN(CC)S(=O)(=O)NC(=O)c1ccc2c(C3CCCCC3)c3n(c2c1)CC1(C(=O)N2C4CC2CN(C)C4)CC1c1cc(OC)ccc1-3` (stereo not drawn) here?
**A.** 2.4 to 500 nM

**Q.** And the EC50 (HCV replicon cells)?
**A.** 2.4 to 500 nM

**Q.** How did the IC50 (HCV NS5B) turn out when `COc1ccc2c(c1)C1CC1(C(=O)N1C3CC1CN(C)C3)Cn1c-2c(C2CCCCC2)c2ccc(C(=O)NS(=O)(=O)C3CCC3)cc21` (stereo not drawn) was run?
**A.** 2.4 to 500 nM

**Q.** What about the EC50 (HCV replicon cells) of the same compound?
**A.** 2.4 to 500 nM

**Q.** `COc1ccc2c(c1)[C@@H]1C[C@]1(C(=O)N1[C@@H]3C[C@H]1CN(Cc1ccccc1)C3)Cn1c-2c(C2CCCCC2)c2ccc(C(=O)NS(=O)(=O)N(C)C)cc21` was tested. Which IC50 (HCV NS5B) did it give?
**A.** 2.4 to 500 nM

**Q.** What about the EC50 (HCV replicon cells) of the same compound?
**A.** 2.4 to 500 nM

**Q.** What does the source list for `COc1ccc2c(c1)C1CC1(C(=O)N1CC3CCC1CN3)Cn1c-2c(C2CCCCC2)c2ccc(C(=O)NS(=O)(=O)C3CCCCC3)cc21` (stereo not drawn)?
**A.** IC50 (HCV NS5B): 2.4 to 500 nM; EC50 (HCV replicon cells): > 1000 nM

**Q.** How did the IC50 (HCV NS5B) turn out when `COc1ccc2c(c1)C1CC1(C(=O)N1C3CN(C)CC1CN(C(C)=O)C3)Cn1c-2c(C2CCCCC2)c2ccc(C(=O)NS(=O)(=O)N(C)C)cc21` (stereo not drawn) was run?
**A.** 2.4 to 500 nM

**Q.** And the EC50 (HCV replicon cells)?
**A.** 2.4 to 500 nM

**Q.** `COc1ccc2c(c1)C1CC1(C(=O)N1CC3COCC(C1)N3Cc1ccccc1)Cn1c-2c(C2CCCCC2)c2ccc(C(=O)NS(=O)(=O)N(C)C)cc21` (stereo not drawn) was tested. Which IC50 (HCV NS5B) did it give?
**A.** 2.4 to 500 nM

**Q.** What about the EC50 (HCV replicon cells) of the same compound?
**A.** 2.4 to 500 nM

**Q.** What does the source list for `COc1ccc2c(c1)C1CC1(C(=O)N1[C@@H]3C[C@H]1CN(Cc1ccccc1)C3)Cn1c-2c(C2CCCCC2)c2ccc(C(=O)NS(=O)(=O)N(C)C)cc21` (stereo partly drawn)?
**A.** IC50 (HCV NS5B): 2.4 to 500 nM; EC50 (HCV replicon cells): 2.4 to 500 nM

**Q.** `COc1ccc2c(c1)C1CC1(C(=O)N1C3COC[C@@H]1CN(C)C3)Cn1c-2c(C2CCCCC2)c2ccc(C(=O)NS(=O)(=O)C(C)C)cc21` (stereo partly drawn) was tested. Which IC50 (HCV NS5B) did it give?
**A.** 2.4 to 500 nM

**Q.** What about the EC50 (HCV replicon cells) of the same compound?
**A.** 2.4 to 500 nM

**Q.** Which results are given for `CCN1C[C@H]2C[C@@H]1CN2C(=O)C12CC1c1cc(OC)ccc1-c1c(C3CCCCC3)c3ccc(C(=O)NS(N)(=O)=O)cc3n1C2` (stereo partly drawn)?
**A.** IC50 (HCV NS5B): 2.4 to 500 nM; EC50 (HCV replicon cells): 2.4 to 500 nM

**Q.** What does the source list for `COc1ccc2c(c1)C1CC1(C(=O)N1C3CCCC1CN(C)C3)Cn1c-2c(C2CCCCC2)c2ccc(C(=O)NS(=O)(=O)C3CC3)cc21` (stereo not drawn)?
**A.** IC50 (HCV NS5B): 2.4 to 500 nM; EC50 (HCV replicon cells): 2.4 to 500 nM
